In paper PMC3559828 (PLoS ONE, 2013):
Bridge positions count the residues as written; N and C are the ends. Peptide text beside a SMILES is read from it.

Columns and labels:
Rat α9α10 nAChR = molecular target: T1, Rat α9α10 nAChR (Rattus norvegicus, UniProt P43144+Q9JLB5); experiment: cell-based
T1 construct: expressed in transfected cells; host or cells: Xenopus oocytes injected with cRNA

Rat α4β2 nAChR = molecular target: T2, Rat α4β2 nAChR (Rattus norvegicus, UniProt P09483+P12390); experiment: cell-based
T2 construct: expressed in transfected cells; host or cells: Xenopus oocytes injected with cRNA

Rat α2β4 nAChR = molecular target: T3, Rat α2β4 nAChR (Rattus norvegicus, UniProt P12389+P12392); experiment: cell-based
T3 construct: expressed in transfected cells; host or cells: Xenopus oocytes injected with cRNA

Rat α3β4 nAChR = molecular target: T4, Rat α3β4 nAChR (Rattus norvegicus, UniProt P04757+P12392); experiment: cell-based
T4 construct: expressed in transfected cells; host or cells: Xenopus oocytes injected with cRNA

Rat α6/α3β4 nAChR = molecular target: T5, Rat α6/α3β4 nAChR (Rattus norvegicus, UniProt P04757+P12392+P43143); experiment: cell-based
T5 construct: expressed in transfected cells; host or cells: Xenopus oocytes injected with cRNA

Rat α4β4 nAChR = molecular target: T6, Rat α4β4 nAChR (Rattus norvegicus, UniProt P09483+P12392); experiment: cell-based
T6 construct: expressed in transfected cells; host or cells: Xenopus oocytes injected with cRNA

Rat α2β2 nAChR = molecular target: T7, Rat α2β2 nAChR (Rattus norvegicus, UniProt P12389+P12390); experiment: cell-based
T7 construct: expressed in transfected cells; host or cells: Xenopus oocytes injected with cRNA

Rat α6/α3β2β3 nAChR = molecular target: T8, Rat α6/α3β2β3 nAChR (Rattus norvegicus, UniProt P04757+P12390+P12391+P43143); experiment: cell-based
T8 construct: expressed in transfected cells; host or cells: Xenopus oocytes injected with cRNA

Rat α7 nAChR = molecular target: T9, Rat α7 nAChR (Rattus norvegicus, UniProt Q05941); experiment: cell-based
T9 construct: expressed in transfected cells; host or cells: Xenopus oocytes injected with cRNA

Rat α3β2 nAChR = molecular target: T10, Rat α3β2 nAChR (Rattus norvegicus, UniProt P04757+P12390); experiment: cell-based
T10 construct: expressed in transfected cells; host or cells: Xenopus oocytes injected with cRNA

α9α10 nAChR [1] = molecular target: T11, α9α10 nAChR (Rattus norvegicus, UniProt P43144+Q9JLB5); type: cell-based
T11 construct: expressed in transfected cells; host or cells: Xenopus oocytes injected with cRNA

GABAB receptors = details: cited from earlier work
α6/α3β2β3 nAChR = details: cited from earlier work
α3β4 nAChR = details: cited from earlier work
α9α10 nAChR [2] = details: cited from earlier work

T4 sequence (P04757 26-499 limits assumed): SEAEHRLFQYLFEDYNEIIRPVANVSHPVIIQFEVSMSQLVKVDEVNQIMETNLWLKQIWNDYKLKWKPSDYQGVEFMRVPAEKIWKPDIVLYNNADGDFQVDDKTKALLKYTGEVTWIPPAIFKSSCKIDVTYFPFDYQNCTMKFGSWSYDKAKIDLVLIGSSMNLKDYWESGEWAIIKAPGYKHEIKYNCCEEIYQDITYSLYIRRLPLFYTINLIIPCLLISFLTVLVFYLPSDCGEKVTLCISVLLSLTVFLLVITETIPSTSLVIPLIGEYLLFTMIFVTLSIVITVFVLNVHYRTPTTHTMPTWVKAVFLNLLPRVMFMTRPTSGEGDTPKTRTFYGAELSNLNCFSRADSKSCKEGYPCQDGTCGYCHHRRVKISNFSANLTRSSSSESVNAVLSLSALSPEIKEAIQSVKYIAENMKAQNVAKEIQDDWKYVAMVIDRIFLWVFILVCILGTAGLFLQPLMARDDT
T4 sequence (P12392 21-495 limits assumed): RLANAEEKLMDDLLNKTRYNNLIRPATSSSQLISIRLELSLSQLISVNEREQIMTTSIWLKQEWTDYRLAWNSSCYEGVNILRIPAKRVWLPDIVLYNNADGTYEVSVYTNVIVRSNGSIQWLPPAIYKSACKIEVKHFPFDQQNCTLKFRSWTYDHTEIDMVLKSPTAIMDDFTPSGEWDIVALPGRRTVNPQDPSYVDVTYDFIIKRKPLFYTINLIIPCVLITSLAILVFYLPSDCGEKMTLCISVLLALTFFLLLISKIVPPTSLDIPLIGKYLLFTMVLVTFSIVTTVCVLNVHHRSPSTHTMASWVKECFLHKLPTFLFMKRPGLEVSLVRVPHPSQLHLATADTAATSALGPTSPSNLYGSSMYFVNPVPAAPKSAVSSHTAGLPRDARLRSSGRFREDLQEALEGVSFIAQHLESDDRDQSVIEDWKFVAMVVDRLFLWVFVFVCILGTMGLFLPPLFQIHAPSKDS
T1 sequence (P43144 26-479 limits assumed): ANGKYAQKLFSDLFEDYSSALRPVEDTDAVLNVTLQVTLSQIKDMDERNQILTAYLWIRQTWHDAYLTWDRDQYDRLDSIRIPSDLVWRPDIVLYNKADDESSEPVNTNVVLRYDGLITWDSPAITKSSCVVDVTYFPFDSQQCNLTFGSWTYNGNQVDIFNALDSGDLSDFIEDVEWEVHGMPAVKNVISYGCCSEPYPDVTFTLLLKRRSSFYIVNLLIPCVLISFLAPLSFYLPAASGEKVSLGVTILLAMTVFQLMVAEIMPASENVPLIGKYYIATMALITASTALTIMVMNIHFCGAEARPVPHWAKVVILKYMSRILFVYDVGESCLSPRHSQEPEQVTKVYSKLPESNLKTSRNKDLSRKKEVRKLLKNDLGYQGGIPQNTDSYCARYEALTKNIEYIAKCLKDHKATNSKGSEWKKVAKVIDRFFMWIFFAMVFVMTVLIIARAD
T1 sequence (Q9JLB5 25-447 limits assumed): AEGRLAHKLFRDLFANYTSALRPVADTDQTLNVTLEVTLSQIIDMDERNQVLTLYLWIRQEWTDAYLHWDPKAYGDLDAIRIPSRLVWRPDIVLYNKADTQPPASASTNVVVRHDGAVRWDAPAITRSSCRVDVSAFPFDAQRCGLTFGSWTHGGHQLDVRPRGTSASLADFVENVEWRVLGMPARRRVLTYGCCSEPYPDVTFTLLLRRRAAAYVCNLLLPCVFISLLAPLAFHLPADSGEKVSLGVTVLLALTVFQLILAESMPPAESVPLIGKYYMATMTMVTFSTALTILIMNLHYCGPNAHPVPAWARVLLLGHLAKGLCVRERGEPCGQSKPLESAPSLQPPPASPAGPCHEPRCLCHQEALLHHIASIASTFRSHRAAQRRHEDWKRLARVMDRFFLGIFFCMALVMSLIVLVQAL
T2 sequence (P09483 31-630 limits assumed): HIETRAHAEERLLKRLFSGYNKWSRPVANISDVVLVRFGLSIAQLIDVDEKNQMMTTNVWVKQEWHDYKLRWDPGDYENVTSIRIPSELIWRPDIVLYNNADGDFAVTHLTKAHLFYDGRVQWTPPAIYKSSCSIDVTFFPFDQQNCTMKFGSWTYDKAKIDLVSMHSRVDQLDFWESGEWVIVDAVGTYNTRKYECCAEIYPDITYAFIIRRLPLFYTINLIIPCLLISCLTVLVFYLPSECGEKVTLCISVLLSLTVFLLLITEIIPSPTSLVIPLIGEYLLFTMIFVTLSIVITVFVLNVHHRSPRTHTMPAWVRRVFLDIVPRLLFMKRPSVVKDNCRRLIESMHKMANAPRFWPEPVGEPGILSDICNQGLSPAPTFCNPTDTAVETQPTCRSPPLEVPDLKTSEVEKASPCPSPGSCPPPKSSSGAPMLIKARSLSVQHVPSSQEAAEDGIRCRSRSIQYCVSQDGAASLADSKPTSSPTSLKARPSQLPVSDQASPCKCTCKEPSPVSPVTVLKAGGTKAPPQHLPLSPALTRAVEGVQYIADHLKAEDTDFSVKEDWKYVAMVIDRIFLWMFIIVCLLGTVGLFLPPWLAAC
T2 sequence (P12390 25-500 limits assumed): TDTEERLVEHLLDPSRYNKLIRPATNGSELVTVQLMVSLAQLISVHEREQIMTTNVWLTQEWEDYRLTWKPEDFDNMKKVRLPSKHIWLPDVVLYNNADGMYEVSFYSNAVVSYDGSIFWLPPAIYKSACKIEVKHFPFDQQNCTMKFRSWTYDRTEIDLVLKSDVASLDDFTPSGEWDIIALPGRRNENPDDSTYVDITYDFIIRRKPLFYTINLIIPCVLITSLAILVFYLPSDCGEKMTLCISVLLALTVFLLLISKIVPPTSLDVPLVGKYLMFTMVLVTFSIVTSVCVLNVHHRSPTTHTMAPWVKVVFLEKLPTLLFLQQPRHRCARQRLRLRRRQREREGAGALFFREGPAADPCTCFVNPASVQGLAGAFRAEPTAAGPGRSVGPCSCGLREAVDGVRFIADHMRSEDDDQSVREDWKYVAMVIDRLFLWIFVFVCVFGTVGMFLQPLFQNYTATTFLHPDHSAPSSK
T9 sequence (Q05941 23-502 limits assumed): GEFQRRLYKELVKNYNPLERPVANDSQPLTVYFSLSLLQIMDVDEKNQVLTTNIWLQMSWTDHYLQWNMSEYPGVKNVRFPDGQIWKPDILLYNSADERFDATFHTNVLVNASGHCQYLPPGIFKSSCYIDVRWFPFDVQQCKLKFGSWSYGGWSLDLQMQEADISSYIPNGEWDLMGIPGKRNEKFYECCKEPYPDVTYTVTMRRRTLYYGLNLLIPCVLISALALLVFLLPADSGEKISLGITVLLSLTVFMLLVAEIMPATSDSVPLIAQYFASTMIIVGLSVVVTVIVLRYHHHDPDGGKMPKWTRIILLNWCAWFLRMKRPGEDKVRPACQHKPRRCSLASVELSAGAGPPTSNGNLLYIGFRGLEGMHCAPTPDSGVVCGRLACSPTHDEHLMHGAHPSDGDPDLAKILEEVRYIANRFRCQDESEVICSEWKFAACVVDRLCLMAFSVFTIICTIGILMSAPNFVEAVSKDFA
T5 sequence (P43143+P04757 fused with the stated changes): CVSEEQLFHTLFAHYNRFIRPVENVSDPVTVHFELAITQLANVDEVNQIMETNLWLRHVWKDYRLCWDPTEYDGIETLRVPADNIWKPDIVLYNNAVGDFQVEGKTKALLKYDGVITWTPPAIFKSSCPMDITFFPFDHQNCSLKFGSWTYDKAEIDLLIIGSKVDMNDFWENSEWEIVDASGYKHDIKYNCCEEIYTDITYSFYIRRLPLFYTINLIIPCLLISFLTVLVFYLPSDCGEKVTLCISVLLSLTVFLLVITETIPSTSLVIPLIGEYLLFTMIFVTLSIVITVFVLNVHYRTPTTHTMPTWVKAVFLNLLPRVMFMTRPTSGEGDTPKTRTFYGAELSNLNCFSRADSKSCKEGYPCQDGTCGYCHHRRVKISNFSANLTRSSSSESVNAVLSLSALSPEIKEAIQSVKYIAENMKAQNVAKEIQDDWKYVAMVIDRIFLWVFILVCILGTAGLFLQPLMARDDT
T5 sequence (P12392 21-495): as the sequence (P12392 21-495 limits assumed) above
T10 sequence (P04757 26-499 limits assumed): as the sequence (P04757 26-499 limits assumed) above
T10 sequence (P12390 25-500 limits assumed): as the sequence (P12390 25-500 limits assumed) above
T6 sequence (P09483 31-630 limits assumed): as the sequence (P09483 31-630 limits assumed) above
T6 sequence (P12392 21-495 limits assumed): as the sequence (P12392 21-495 limits assumed) above
T3 sequence (P12389 28-511 limits assumed): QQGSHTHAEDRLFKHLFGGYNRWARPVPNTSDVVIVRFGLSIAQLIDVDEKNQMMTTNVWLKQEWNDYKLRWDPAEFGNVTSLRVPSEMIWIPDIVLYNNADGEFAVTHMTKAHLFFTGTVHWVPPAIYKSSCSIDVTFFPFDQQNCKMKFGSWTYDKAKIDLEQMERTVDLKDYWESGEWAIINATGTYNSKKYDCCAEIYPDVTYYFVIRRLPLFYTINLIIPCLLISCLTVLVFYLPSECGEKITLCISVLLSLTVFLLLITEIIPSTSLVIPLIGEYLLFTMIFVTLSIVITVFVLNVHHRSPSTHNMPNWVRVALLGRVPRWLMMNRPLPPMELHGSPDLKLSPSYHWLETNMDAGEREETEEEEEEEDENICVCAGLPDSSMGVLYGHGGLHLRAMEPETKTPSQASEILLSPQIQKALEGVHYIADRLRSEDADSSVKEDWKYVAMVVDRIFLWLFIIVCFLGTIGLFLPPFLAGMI
T3 sequence (P12392 21-495 limits assumed): as the sequence (P12392 21-495 limits assumed) above
T7 sequence (P12389 28-511 limits assumed): as the sequence (P12389 28-511 limits assumed) above
T7 sequence (P12390 25-500 limits assumed): as the sequence (P12390 25-500 limits assumed) above
T11 sequence (P43144 26-479 limits assumed): as the sequence (P43144 26-479 limits assumed) above
T11 sequence (Q9JLB5 25-447 limits assumed): as the sequence (Q9JLB5 25-447 limits assumed) above

Row | Compound | IC50 (Rat α9α10 nAChR) [µM] | IC50 (Rat α4β2 nAChR) [µM] | IC50 (Rat α2β4 nAChR) [µM] | IC50 (Rat α3β4 nAChR) [µM] | IC50 (Rat α6/α3β4 nAChR) [µM] | IC50 (Rat α4β4 nAChR) [µM] | IC50 (Rat α2β2 nAChR) [µM] | IC50 (Rat α6/α3β2β3 nAChR) [µM] | IC50 (Rat α7 nAChR) [µM] | IC50 (Rat α3β2 nAChR) [µM] | activity at nAChRs (in words) (Rat α9α10 nAChR) | block of α9α10 current (Rat α9α10 nAChR) | block in the presence of Ba++ (in words) (α9α10 nAChR [1]) | activity at GABAB receptors (GABAB receptors) | IC50 (α6/α3β2β3 nAChR) [nM] | IC50 (α3β4 nAChR) [µM] | IC50 (α9α10 nAChR [2]) [nM]
1 | CC(C)C[C@@H]1NC(=O)[C@@H](NC(=O)[C@H](CCCNC(=N)N)NC(=O)[C@@H](N)C(C)C)CSSC[C@@H](C(=O)N[C@H]2CSSC[C@@H](C(=O)N[C@H](C(=O)N[C@@H](Cc3ccc(O)cc3)C(=O)N[C@@H](Cc3ccc(O)cc3)C(=O)N[C@H](C(=O)N[C@@H](CCC(N)=O)C(=O)N[C@@H](CO)C(=O)N[C@@H](CCCNC(=N)N)C(=O)N[C@@H](CCC(=O)O)C(=O)O)[C@@H](C)O)C(C)C)NC(=O)[C@H](CCCNC(=N)N)NC(=O)[C@H](CO)NC(=O)[C@H](Cc3c[nH]cn3)NC(=O)[C@H](CCCNC(=N)N)NC(=O)[C@H](C)NC(=O)[C@H](Cc3ccccc3)NC(=O)[C@H](CO)NC(=O)[C@@H]3CCCN3C(=O)CNC(=O)[C@H](CCCCN)NC(=O)[C@H](CCC(N)=O)NC2=O)NC(=O)[C@@H]2CCCN2C(=O)[C@@H]2CCCN2C(=O)[C@H](CCCNC(=N)N)NC(=O)[C@H](Cc2ccccc2)NC(=O)[C@H](CC(C)C)NC(=O)[C@H](CCCCN)NC(=O)[C@H](CC(N)=O)NC(=O)[C@@H]2CCCN2C(=O)[C@H](CCC(N)=O)NC(=O)[C@H](C)NC(=O)CNC(=O)[C@H](CO)NC(=O)[C@H](CCCCN)NC(=O)[C@H](CCC(=O)O)NC1=O [αB-VxXXIVA [1], [2]] (H-VRCLEKSGAQPNKLFRPPCCQKGPSFARHSRCVYYTQSRE-OH; disulfide 3-19, 20-32) | 1.2 | > 30 | > 30 | > 30 | 30.1 | > 30 | 23.4 | 12.2 | > 30 | > 30 | – | – | – | – | – | – | –
2 | CC(C)C[C@@H]1NC(=O)[C@@H](NC(=O)[C@H](CCCNC(=N)N)NC(=O)[C@@H](N)C(C)C)CSSC[C@@H]2NC(=O)[C@H](CSSC[C@@H](C(=O)N[C@H](C(=O)N[C@@H](Cc3ccc(O)cc3)C(=O)N[C@@H](Cc3ccc(O)cc3)C(=O)N[C@H](C(=O)N[C@@H](CCC(N)=O)C(=O)N[C@@H](CO)C(=O)N[C@@H](CCCNC(=N)N)C(=O)N[C@@H](CCC(=O)O)C(=O)O)[C@@H](C)O)C(C)C)NC(=O)[C@H](CCCNC(=N)N)NC(=O)[C@H](CO)NC(=O)[C@H](Cc3c[nH]cn3)NC(=O)[C@H](CCCNC(=N)N)NC(=O)[C@H](C)NC(=O)[C@H](Cc3ccccc3)NC(=O)[C@H](CO)NC(=O)[C@@H]3CCCN3C(=O)CNC(=O)[C@H](CCCCN)NC(=O)[C@H](CCC(N)=O)NC2=O)NC(=O)[C@@H]2CCCN2C(=O)[C@@H]2CCCN2C(=O)[C@H](CCCNC(=N)N)NC(=O)[C@H](Cc2ccccc2)NC(=O)[C@H](CC(C)C)NC(=O)[C@H](CCCCN)NC(=O)[C@H](CC(N)=O)NC(=O)[C@@H]2CCCN2C(=O)[C@H](CCC(N)=O)NC(=O)[C@H](C)NC(=O)CNC(=O)[C@H](CO)NC(=O)[C@H](CCCCN)NC(=O)[C@H](CCC(=O)O)NC1=O [αB-VxXXIVA [1], [3]] (H-VRCLEKSGAQPNKLFRPPCCQKGPSFARHSRCVYYTQSRE-OH; disulfide 3-20, 19-32) | 3.9 | > 30 | > 30 | > 30 | > 30 | > 30 | > 30 | > 30 | > 30 | > 30 | – | – | – | – | – | – | –
3 | CC(C)C[C@@H]1NC(=O)[C@@H](NC(=O)[C@H](CCCNC(=N)N)NC(=O)[C@@H](N)C(C)C)CSSC[C@@H](C(=O)N[C@H](C(=O)N[C@@H](Cc2ccc(O)cc2)C(=O)N[C@@H](Cc2ccc(O)cc2)C(=O)N[C@H](C(=O)N[C@@H](CCC(N)=O)C(=O)N[C@@H](CO)C(=O)N[C@@H](CCCNC(=N)N)C(=O)N[C@@H](CCC(=O)O)C(=O)O)[C@@H](C)O)C(C)C)NC(=O)[C@H](CCCNC(=N)N)NC(=O)[C@H](CO)NC(=O)[C@H](Cc2c[nH]cn2)NC(=O)[C@H](CCCNC(=N)N)NC(=O)[C@H](C)NC(=O)[C@H](Cc2ccccc2)NC(=O)[C@H](CO)NC(=O)[C@@H]2CCCN2C(=O)CNC(=O)[C@H](CCCCN)NC(=O)[C@H](CCC(N)=O)NC(=O)[C@@H]2CSSC[C@H](NC(=O)[C@@H]3CCCN3C(=O)[C@@H]3CCCN3C(=O)[C@H](CCCNC(=N)N)NC(=O)[C@H](Cc3ccccc3)NC(=O)[C@H](CC(C)C)NC(=O)[C@H](CCCCN)NC(=O)[C@H](CC(N)=O)NC(=O)[C@@H]3CCCN3C(=O)[C@H](CCC(N)=O)NC(=O)[C@H](C)NC(=O)CNC(=O)[C@H](CO)NC(=O)[C@H](CCCCN)NC(=O)[C@H](CCC(=O)O)NC1=O)C(=O)N2 [αB-VxXXIVA [1], [4]] (H-VRCLEKSGAQPNKLFRPPCCQKGPSFARHSRCVYYTQSRE-OH; disulfide 3-32, 19-20) | > 30 | > 30 | – | > 30 | – | – | – | – | > 30 | – | inactive | less than 15% | did not potently block | – | – | – | –
4 | α-Conotoxin Vc1.1 | – | – | – | – | – | – | – | – | – | – | – | – | – | activate GABAB receptors | 140 | 4.2 | 5
